Results: patent US20250262279A1, “DOSE REGIMEN FOR LONG-ACTING GLP1/GLUCAGON RECEPTOR AGONISTS” (Boehringer Ingelheim International GmbH, priority 2021, published 2025)

Assay: Example 1 Phase I titration study in obesity/overweight: safety and tolerability
Conditions: for Patients withdrawn from up-titration: Ex.1 Part B (16 wk)
[1] = Ex.1 Part B, Weekly 6 (twice weekly)

From the text: Blinded within dose groups, randomised, placebo-controlled
• Male patients (Part A); male and female patients (Part B) • Age 18 to <70 years • BMI 27 to <40 kg/m^2 • Body weight of at least 70 kg for women and 80 kg for men • Stable body weight, defined as no more than 5% change within 3 months prior to screening
Further criteria of interest: • AEs (including clinically relevant findings from the physical examination and assessment of local tolerability) • Safety laboratory tests • 12-lead ECG • Vital signs (blood pressure, pulse rate) • Continuous ECG (including mean daily heart rate) • Assessment of local tolerability by the investigator • The cumulative number [N (%)] of patients withdrawn from up-titration by up-titration scheme and week
Descriptive statistics were calculated for all endpoints. […] No formal interim analysis was conducted. Data from the completed 6-week cohorts were analysed before database lock for internal decision-making.

Structure (SMILES): CC[C@H](C)[C@H](NC(=O)[C@H](Cc1ccccc1)NC(=O)[C@H](CC(=O)O)NC(=O)[C@H](CCCCN)NC(=O)[C@H](C)NC(=O)[C@H](C)NC(=O)[C@H](CCCNC(=N)N)NC(=O)[C@H](CCC(=O)O)NC(=O)[C@H](CC(=O)O)NC(=O)[C@H](CC(C)C)NC(=O)[C@H](Cc1ccc(O)cc1)NC(=O)[C@H](CCCCN)NC(=O)[C@H](CO)NC(=O)[C@H](Cc1ccc(O)cc1)NC(=O)[C@H](CC(=O)O)NC(=O)[C@H](CO)NC(=O)[C@@H](NC(=O)[C@H](Cc1ccccc1)NC(=O)[C@@H](NC(=O)CNC(=O)[C@H](CCC(N)=O)NC(=O)C1(NC(=O)[C@@H](N)Cc2c[nH]cn2)CCC1)[C@@H](C)O)[C@@H](C)O)C(=O)N[C@@H](CCCCNC(=O)CNC(=O)CNC(=O)[C@H](CO)NC(=O)CNC(=O)[C@H](CO)NC(=O)CNC(=O)CC[C@H](NC(=O)CCCCCCCCCCCCCCCCC(=O)O)C(=O)O)C(=O)N[C@@H](Cc1c[nH]c2ccccc12)C(=O)N[C@@H](CC(C)C)C(=O)N[C@@H](CCC(=O)O)C(=O)N[C@@H](CO)C(=O)N[C@@H](C)C(N)=O [Compound I]
- proportion of patients who withdrew from up-titration (Ex.1 Part A, Weekly 1): 35.3%
- patients with severe diarrhoea (Ex.1 Part A, Weekly 1 and Weekly 2): 2 patients
- Patients with AE leading to discontinuation of trial drug (Ex.1 Part A, Weekly 2): 2 (11.1) N (%)
- Patients with any AE (Ex.1 Part A, Weekly 2): 18 (100) N (%)
- Patients with investigator defined drug-related AE (Ex.1 Part A, Weekly 2): 18 (100) N (%)
- Patients with other significant AEs (ICH E3) (Ex.1 Part A, Weekly 2): 2 (11.1) N (%)
- Patients with serious AE (Ex.1 Part A, Weekly 2): 1 (5.6) N (%)
- Patients with severe AE (Ex.1 Part A, Weekly 2): 2 (11.1) N (%)
- patients with severe vomiting (Ex.1 Part A, Weekly 2): one
- proportion of patients who withdrew from up-titration (Ex.1 Part A, Weekly 2): 44.4%
- patients with serious AE ventricular tachycardia (Ex.1 Part A, Weekly 2, assessed as drug-related, led to discontinuation): One
- Patients with AE leading to discontinuation of trial drug (Ex.1 Part A, Weekly 3): 2 (11.8) N (%)
- Patients with any AE (Ex.1 Part A, Weekly 3): 17 (100) N (%)
- Patients with investigator defined drug-related AE (Ex.1 Part A, Weekly 3): 17 (100) N (%)
- Patients with other significant AEs (ICH E3) (Ex.1 Part A, Weekly 3): 2 (11.8) N (%)
- Patients with serious AE (Ex.1 Part A, Weekly 3): 0 N (%)
- Patients with severe AE (Ex.1 Part A, Weekly 3): 0 N (%)
- proportion of patients who withdrew from up-titration (Ex.1 Part A, Weekly 3): 76.5%
- proportion of patients who withdrew from up-titration (Ex.1 Part A, all Compound I groups): 40.3%
- continuous ECG monitoring over 24 hours, mean heart rate (Ex.1 Part A, all Compound I treatment groups): increases in mean heart rate
- clinical laboratory analyses (Ex.1 Part B): no treatment-emergent clinically relevant findings
- deaths (Ex.1 Part B): No patients died
- drug-related cardiac disorders (Ex.1 Part B): no cases
- Patients withdrawn from up-titration (Compound I total): 8 (22.2) N (%)
- Patients withdrawn from up-titration (Weekly 4): 3 (23.1) N (%)
- Patients withdrawn from up-titration (Weekly 5): 4 (36.4) N (%)
- Patients withdrawn from up-titration (Weekly 6 (twice weekly)): 1 (8.3) N (%)
- Patients with AE leading to discontinuation of trial drug (Ex.1 Part B, Cmp I Total): 6 (16.7) N (%)
- Patients with any AE (Ex.1 Part B, Cmp I Total): 35 (97.2) N (%)
- Patients with investigator defined drug-related AE (Ex.1 Part B, Cmp I Total): 35 (97.2) N (%)
- Patients with other significant AEs (ICH E3) (Ex.1 Part B, Cmp I Total): 8 (22.2) N (%)
- Patients with serious AE (Ex.1 Part B, Cmp I Total): 0 N (%)
- Patients with severe AE (Ex.1 Part B, Cmp I Total): 8 (22.2) N (%)
- Patients with AE leading to discontinuation of trial drug (Ex.1 Part B, Weekly 4): 3 (23.1) N (%)
- Patients with any AE (Ex.1 Part B, Weekly 4): 13 (100.0) N (%)
- Patients with investigator defined drug-related AE (Ex.1 Part B, Weekly 4): 13 (100.0) N (%)
- Patients with other significant AEs (ICH E3) (Ex.1 Part B, Weekly 4): 4 (30.8) N (%)
- Patients with serious AE (Ex.1 Part B, Weekly 4): 0 N (%)
- Patients with severe AE (Ex.1 Part B, Weekly 4): 4 (30.8) N (%)
- drug-related gastrointestinal disorders, frequency (Ex.1 Part B, Weekly 4): 92.3%
- Patients with AE leading to discontinuation of trial drug (Ex.1 Part B, Weekly 5): 2 (18.2) N (%)
- Patients with any AE (Ex.1 Part B, Weekly 5): 11 (100.0) N (%)
- Patients with investigator defined drug-related AE (Ex.1 Part B, Weekly 5): 11 (100.0) N (%)
- Patients with other significant AEs (ICH E3) (Ex.1 Part B, Weekly 5): 3 (27.3) N (%)
- Patients with serious AE (Ex.1 Part B, Weekly 5): 0 N (%)
- Patients with severe AE (Ex.1 Part B, Weekly 5): 4 (36.4) N (%)
- drug-related gastrointestinal disorders, frequency (Ex.1 Part B, Weekly 5): all patients
- proportion of patients who withdrew from up-titration (Ex.1 Part B, Weekly 5): 36.4%
- Patients with AE leading to discontinuation of trial drug [1]: 1 (8.3) N (%)
- Patients with any AE [1]: 11 (91.7) N (%)
- Patients with investigator defined drug-related AE [1]: 11 (91.7) N (%)
- Patients with other significant AEs (ICH E3) [1]: 1 (8.3) N (%)
- Patients with serious AE [1]: 0 N (%)
- Patients with severe AE [1]: 0 N (%)
- drug-related gastrointestinal disorders, frequency [1]: 58.3%
- proportion of patients who withdrew from up-titration [1]: 8.3%
- proportion of patients who withdrew from up-titration (Ex.1 Part B, all Compound I groups): 22.2%
- ECG analyses, heart rate (Ex.1 Part B, all Compound I treatment groups): increases in heart rate
